We go through 51 compounds from patent publication US12384753B2, “17-beta-hydroxysteroid dehydrogenase type 13 inhibitors and methods of use thereof” (Enanta Pharmaceuticals, Inc., priority 2021, dated 2025).

As a reminder, the IC50 is the concentration needed to halve the response being measured.

SMILES strings stand for the structures.

The target of the assay is Recombinant human HSD17B13 (Homo sapiens (Human), UniProt Q7Z5P4). Put plainly: HSD17B13 rapid-fire mass spectrometry assay (RF/MS assay). To be noted: inhibition of HSD17B13; LTB4 10 μM, NAD+ 0.5 mM, RT 3 h; IC50 ranges A-E. The format is biochemical. The gist of the method: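 Sf9-expressed human HSD17B13 (80 nM) with 10 μM LTB4 and 0.5 mM NAD+, incubated with compound (0–100 μM) for 3 h at RT in Tris pH 7.5/BSA/Tween-20. After formic acid quench, LTB4 conversion to 12-oxo-LTB4 measured by RapidFire MS/MS. IC50 from normalised residual activity, duplicates.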
Recombinant human HSD17B13, sequence (Q7Z5P4 20-300): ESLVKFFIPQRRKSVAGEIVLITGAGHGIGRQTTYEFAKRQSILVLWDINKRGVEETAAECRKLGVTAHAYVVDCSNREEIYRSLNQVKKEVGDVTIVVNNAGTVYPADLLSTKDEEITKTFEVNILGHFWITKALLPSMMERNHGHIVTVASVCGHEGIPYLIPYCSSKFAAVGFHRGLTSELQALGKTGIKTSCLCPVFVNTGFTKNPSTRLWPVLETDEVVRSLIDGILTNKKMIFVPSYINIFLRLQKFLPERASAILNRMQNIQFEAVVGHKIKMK
For the compound `COc1cc(C(=O)O)c(F)cc1NS(=O)(=O)c1csc(-c2ccc(-c3ccc(C45CC6C[C@H](C4)C[C@H](C6)C5)cc3)cc2F)n1` [Example 760], the IC50 is less than 100 nM.
The value for `COc1cc(C(=O)O)c(F)cc1NS(=O)(=O)c1csc(-c2ccc([C@H]3CC[C@@H](C(C)(C)C)CC3)cc2)n1` [Example 761] was 100 to 500 nM; that for `COc1cc(C(=O)O)c(F)cc1NS(=O)(=O)c1csc(-c2ccc([C@H]3CC[C@H](C(C)(C)C)CC3)cc2)n1` [Example 762] was less than 100 nM.
The value for `COc1cc(C(=O)O)c(F)cc1NS(=O)(=O)c1csc(-c2ccc(OC3CCCCC3)cc2)n1` [Example 763] was 100 to 500 nM; that for `COc1cc(C(=O)O)c(F)cc1NS(=O)(=O)c1cnc(-c2ccc(C3CCC(C)(C)CC3)cc2)s1` [Example 764] was less than 100 nM.
With `COc1cc(C(=O)O)c(F)cc1NS(=O)(=O)c1cnc(-c2ccc(C3=CCC(C(C)C)CC3)cc2)s1` (stereo not drawn) [Example 765] the figure was 100 to 500 nM; with `COc1cc(C(=O)O)c(F)cc1NS(=O)(=O)c1cnc(-c2ccc(-c3ccc(C45CC6C[C@H](C4)C[C@H](C6)C5)cc3)cc2)s1` [Example 766], 100 to 500 nM.
For the compound `COc1cc(C(=O)O)c(F)cc1NS(=O)(=O)c1csc(-c2ccc(F)cc2)n1` [Example 767], the IC50 was in the range of 100 to 500 nM.
Regarding `COc1cc(C(=O)O)c(F)cc1NS(=O)(=O)c1cnc(-c2ccc([C@H]3CC[C@H](C(C)C)CC3)cc2)s1` [Example 769], the IC50 was 100 to 500 nM.
With `COc1cc(C(=O)O)c(F)cc1NS(=O)(=O)c1cnc(-c2ccc(-c3ccc(C(F)(F)C(F)(F)F)cc3)cc2)s1` [Example 770] the figure was less than 100 nM.
The value for `COc1cc(C(=O)O)c(F)cc1NS(=O)(=O)c1csc(-c2ccc(C3=CCC(C(C)C)CC3)c(F)c2F)n1` (stereo not drawn) [Example 771] was less than 100 nM.
With `COc1cc(C(=O)O)c(F)cc1NS(=O)(=O)c1csc(-c2ccc([C@H]3CC[C@@H](C(C)C)CC3)c(F)c2F)n1` [Example 772] the figure was less than 100 nM; with `COc1cc(C(=O)O)c(F)cc1NS(=O)(=O)c1csc(-c2ccc([C@H]3CC[C@H](C(C)C)CC3)c(F)c2F)n1` [Example 773], less than 100 nM.
As to `COc1cc(C(=O)O)c(F)cc1NS(=O)(=O)c1csc(-c2ccc(C3=CCC(C(C)C)CC3)cc2)n1` (stereo not drawn) [Example 774], the concentration for half-maximal inhibition (IC50) was less than 100 nM.
With `COc1cc(C(=O)O)c(F)cc1NS(=O)(=O)c1csc(-c2ccc(-c3ccc(C45CC6C[C@H](C4)C[C@H](C6)C5)cc3)cc2C(F)(F)F)n1` [Example 775] the figure was less than 100 nM.
With `COc1cc(C(=O)O)c(F)cc1NS(=O)(=O)c1csc(-c2ccc(C3=CCC(C(C)(C)C)CC3)cc2C(F)(F)F)n1` (stereo not drawn) [Example 776] the figure was less than 100 nM; with `COc1cc(C(=O)O)c(F)cc1NS(=O)(=O)c1csc(-c2ccc(C3CCC4(CC3)CC4)cc2)n1` [Example 778], less than 100 nM.
With `CCC[C@H]1CC[C@H](C2CC=C(c3nc(S(=O)(=O)Nc4cc(F)c(C(=O)O)cc4OC)cs3)CC2)CC1` (stereo partly drawn) [Example 779] the figure was 100 to 500 nM; with `COc1cc(C(=O)O)c(F)cc1NS(=O)(=O)c1csc(-c2ccc([C@H]3CC[C@H](C(C)(C)C)CC3)cc2C(F)(F)F)n1` [Example 780], less than 100 nM; with `COc1cc(C(=O)O)c(F)cc1NS(=O)(=O)c1csc(-c2ccc(-c3ccc(C4CCC(C(C)(C)C)CC4)cc3C(F)(F)F)cc2C(F)(F)F)n1` (stereo not drawn) [Example 781], 100 to 500 nM.
Take `COc1cc(C(=O)O)c(F)cc1NS(=O)(=O)c1csc(-c2ccc([C@H]3CC[C@@H](C(C)(C)C)CC3)cc2C(F)(F)F)n1` [Example 782]: the half-inhibitory concentration (IC50) lay in the range of 100 to 500 nM.
With `COc1cc(C(=O)O)c(F)cc1NS(=O)(=O)c1csc(-c2ccc(-c3ccc([C@H]4CC[C@@H](C(C)(C)C)CC4)cc3C(F)(F)F)cc2C(F)(F)F)n1` [Example 783] the figure was 100 to 500 nM; with `COc1cc(C(=O)O)c(F)cc1NS(=O)(=O)c1csc(-c2ccc(-c3ccc(C(F)(F)C(F)(F)F)cc3)cc2C(F)(F)F)n1` [Example 784], less than 100 nM; with `CCC1CC=C(c2ccc(-c3nc(S(=O)(=O)Nc4cc(F)c(C(=O)O)cc4OC)cs3)c(C(F)(F)F)c2)CC1` (stereo not drawn) [Example 785], less than 100 nM.
With `CCC1CCC(c2ccc(-c3nc(S(=O)(=O)Nc4cc(F)c(C(=O)O)cc4OC)cs3)c(C(F)(F)F)c2)CC1` (stereo not drawn) [Example 786] the figure was 100 to 500 nM.
The value for `CC[C@H]1CC[C@H](c2ccc(-c3nc(S(=O)(=O)Nc4cc(F)c(C(=O)O)cc4OC)cs3)c(C(F)(F)F)c2)CC1` [Example 787] was less than 100 nM; that for `COc1cc(C(=O)O)c(F)cc1NS(=O)(=O)c1csc(-c2ccc(-c3ccc(-c4ccc(C(F)(F)C(F)(F)F)cc4)cc3C(F)(F)F)cc2C(F)(F)F)n1` [Example 788] was 100 to 500 nM.
Take `COc1cc(C(=O)O)c(F)cc1NS(=O)(=O)c1csc(-c2ccc(-c3cc(F)c(C(F)(F)F)c(F)c3)c(OC(C)C)c2F)n1` [Example 790]: the IC50 is less than 100 nM.
With `COc1cc(C(=O)O)c(F)cc1NS(=O)(=O)c1csc(-c2ccc(-c3ccc(C(F)(C(F)(F)F)C(F)(F)F)cc3)c(OC(C)C)c2F)n1` [Example 793] the figure was less than 100 nM; with `COc1cc(C(=O)O)c(F)cc1NS(=O)(=O)c1csc(-c2ccc(-c3ccc(C4(C(F)(F)F)CC4)cc3)cc2C(F)(F)F)n1` [Example 794], less than 100 nM; with `COc1cc(C(=O)O)c(F)cc1NS(=O)(=O)c1csc(-c2ccc(-c3ccc(C(F)(C(F)(F)F)C(F)(F)F)cc3)cc2C(F)(F)F)n1` [Example 795], less than 100 nM.
With `COc1cc(C(=O)O)c(F)cc1NS(=O)(=O)c1csc(-c2ccc(-c3ccc(-c4ccc(C5(C(F)(F)F)CC5)cc4)cc3C(F)(F)F)cc2C(F)(F)F)n1` [Example 796] the figure was 100 to 500 nM.
Regarding `COc1cc(C(=O)O)c(F)cc1NS(=O)(=O)c1csc(-c2ccc(-c3ccc(-c4ccc(C(F)(C(F)(F)F)C(F)(F)F)cc4)cc3C(F)(F)F)cc2C(F)(F)F)n1` [Example 797], the 50% inhibitory concentration (IC50) fell in the range of 100 to 500 nM.
With `COc1cc(C(=O)O)c(F)cc1NS(=O)(=O)c1ccc2sc(-c3ccc([C@H]4CC[C@H](C(C)C)CC4)cc3C(F)(F)F)nc2c1` [Example 798] the figure was 100 to 500 nM; with `COc1cc(C(=O)O)c(F)cc1NS(=O)(=O)c1csc(-c2ccc(C3=CCC(C(C)C)CC3)c(OC)c2F)n1` (stereo not drawn) [Example 799], less than 100 nM; with `COc1cc(C(=O)O)c(F)cc1NS(=O)(=O)c1csc(C2=CCC(C(C)C)CC2)n1` (stereo not drawn) [Example 800], 500 to 1000 nM.
The value for `COc1cc(C(=O)O)c(F)cc1NS(=O)(=O)c1csc(-c2ccc([C@H]3CC[C@@H](C(C)C)CC3)c(OC)c2F)n1` [Example 802] was less than 100 nM; that for `COc1cc(C(=O)O)c(F)cc1NS(=O)(=O)c1csc(-c2ccc([C@H]3CC[C@H](C(C)C)CC3)c(OC)c2F)n1` [Example 803] was less than 100 nM; that for `COc1cc(C(=O)O)c(F)cc1NS(=O)(=O)c1csc(-c2ccc(-c3ccc(-c4ccc(C5=CCC(C(C)(C)C)CC5)cc4C(F)(F)F)cc3C(F)(F)F)cc2C(F)(F)F)n1` (stereo not drawn) [Example 804] was 1000 to 100000 nM.
With `COc1cc(C(=O)O)c(F)cc1NS(=O)(=O)c1csc(-c2ccc([C@H]3CC[C@@H](C(C)C)CC3)c(F)c2C)n1` [Example 805] the figure was less than 100 nM; with `COc1cc(C(=O)O)c(F)cc1NS(=O)(=O)c1csc(-c2ccc([C@H]3CC[C@H](C(C)C)CC3)c(F)c2C)n1` [Example 806], less than 100 nM.
Turning to `COc1cc(C(=O)O)c(F)cc1NS(=O)(=O)c1csc(-c2ccc([C@H]3CC[C@@H](C(C)C)CC3)c(C)c2F)n1` [Example 807], the half-inhibitory concentration (IC50) is less than 100 nM.
With `COc1cc(C(=O)O)c(F)cc1NS(=O)(=O)c1csc(-c2ccc([C@H]3CC[C@H](C(C)C)CC3)c(C)c2F)n1` [Example 808], the IC50 is less than 100 nM.
The value for `CCOc1c(C2=CCC(C(C)C)CC2)ccc(-c2nc(S(=O)(=O)Nc3cc(F)c(C(=O)O)cc3OC)cs2)c1F` (stereo not drawn) [Example 809] was less than 100 nM; that for `COc1cc(C(=O)O)c(F)cc1NS(=O)(=O)c1csc(-c2ccc(C3=CCC(C(F)(F)F)CC3)c(OC(C)C)c2F)n1` (stereo not drawn) [Example 810] was less than 100 nM.
Take `COc1cc(C(=O)O)c(F)cc1NS(=O)(=O)c1csc(-c2ccc(C3CCC(C(F)(F)F)CC3)c(OC(C)C)c2F)n1` (stereo not drawn) [Example 811]: the concentration for half-maximal inhibition (IC50) lay within 100 to 500 nM.
The value for `COc1cc(C(=O)O)c(F)cc1NS(=O)(=O)c1csc(-c2ccc(C3CCC(C(F)(F)F)CC3)c(OC(C)C)c2F)n1` (stereo not drawn) [Example 812] was less than 100 nM.
The value for `COc1cc(C(=O)O)c(F)cc1NS(=O)(=O)c1csc(-c2ccc(C3=CCC(C(F)(F)F)CC3)c(C)c2F)n1` (stereo not drawn) [Example 813] was less than 100 nM; that for `CCOc1c(F)c(-c2nc(S(=O)(=O)Nc3cc(F)c(C(=O)O)cc3OC)cs2)ccc1[C@H]1CC[C@@H](C(F)(F)F)CC1` [Example 814] was less than 100 nM; that for `CCOc1c(F)c(-c2nc(S(=O)(=O)Nc3cc(F)c(C(=O)O)cc3OC)cs2)ccc1[C@H]1CC[C@H](C(F)(F)F)CC1` [Example 815] was 100 to 500 nM.
With `CCOc1c(C2=CCC(C(F)(F)F)CC2)ccc(-c2nc(S(=O)(=O)Nc3cc(F)c(C(=O)O)cc3OC)cs2)c1F` (stereo not drawn) [Example 816] the figure was less than 100 nM.
